According to patent publication US10829484B2, “Compounds and methods for kinase modulation, and indications therefor” (Plexxikon Inc., priority 2015, dated 2020):
Positions count from the first letter of the chain named.

How the values were obtained:
[1] = molecular target: T1, BaF3-FLT3-ITD-F691L (Homo sapiens, UniProt P36888, INS600HVDFREYEYD/F691L, cells depend on it); assay: CTB viability assay CS0047, BaF3-FLT3-ITD-F691L; assay type: cell-based, murine; conditions: BaF3-FLT3-ITD-F691L cells, CellTiter Blue viability, 72 hours; read-out: Cell Assay: CS0047:BaF3-FLT3-ITD-F691L CTB:IC50
T1 sequence (P36888 with tags, fused parts or gaps INS600HVDFREYEYD/F691L): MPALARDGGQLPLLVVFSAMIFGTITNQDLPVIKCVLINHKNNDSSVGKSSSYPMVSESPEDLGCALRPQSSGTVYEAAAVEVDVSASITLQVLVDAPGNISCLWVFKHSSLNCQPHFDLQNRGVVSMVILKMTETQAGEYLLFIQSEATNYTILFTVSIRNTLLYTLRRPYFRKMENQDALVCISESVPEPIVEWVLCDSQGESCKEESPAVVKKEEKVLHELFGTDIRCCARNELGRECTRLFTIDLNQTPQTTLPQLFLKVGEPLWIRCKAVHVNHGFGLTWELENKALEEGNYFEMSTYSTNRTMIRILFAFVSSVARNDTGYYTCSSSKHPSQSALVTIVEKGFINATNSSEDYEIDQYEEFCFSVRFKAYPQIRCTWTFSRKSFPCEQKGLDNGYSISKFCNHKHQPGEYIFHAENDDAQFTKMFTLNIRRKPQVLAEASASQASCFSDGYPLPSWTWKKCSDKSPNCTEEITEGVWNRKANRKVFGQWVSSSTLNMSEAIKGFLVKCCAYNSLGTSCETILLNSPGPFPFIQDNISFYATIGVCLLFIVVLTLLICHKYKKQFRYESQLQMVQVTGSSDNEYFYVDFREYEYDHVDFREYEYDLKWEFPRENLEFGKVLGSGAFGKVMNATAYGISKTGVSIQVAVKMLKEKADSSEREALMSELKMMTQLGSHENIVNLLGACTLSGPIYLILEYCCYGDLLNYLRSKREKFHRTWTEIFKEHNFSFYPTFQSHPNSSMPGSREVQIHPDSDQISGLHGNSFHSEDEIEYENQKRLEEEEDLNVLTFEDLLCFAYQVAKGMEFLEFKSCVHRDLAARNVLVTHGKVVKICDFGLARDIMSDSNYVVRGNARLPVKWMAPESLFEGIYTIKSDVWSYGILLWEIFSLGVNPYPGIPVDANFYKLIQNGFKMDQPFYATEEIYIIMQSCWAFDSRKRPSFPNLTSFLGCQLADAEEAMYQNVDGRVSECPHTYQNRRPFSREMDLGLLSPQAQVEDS
Text: (§1) Gene constructs containing the human FLT3 sequences FLT3-ITD, FLT3-ITD-F691L, FLT3-ITD-D835V and FLT3-D835V were synthesized by reverse translation of the human protein sequences, with codons optimized for mammalian expression. Sequence of the internal tandem duplication (ITD) was based on the MV4-11 ITD sequence. Synthetic DNA constructs were cloned into the pMSCV puro retroviral vector (Clontech) and transfected into the EcoPack2-293 packaging cell line (Clontech) to generate retroviruses that contain the different FLT3 constructs. Viruses were transduced into the IL-3-dependent, murine […] cell line, Ba/F3, and selected for puromycin resistance and IL-3 independence. All cell lines were cloned by limiting dilution and clones were used for all subsequent cell assays. Overexpression of the FLT3 mutants in the Ba/F3 cells results in constitutive phosphorylation of the exogenous FLT3 protein, which is required for IL-3 independence.
(§2) Cell lines were serum starved overnight in media containing 0.5% FBS, plated at 15,000 cells/well in 96-well white-walled tissue culture plates, and 3-fold serial dilutions of test compounds of Formula I were added for 72 hours at 37° C. CellTiter Blue (CTB, Promega) was added and incubated for an additional 3 hours at 37° C. Fluorescence was read at 560 nm excitation, 590 nm emission. Wells with CTB+media only were used for background subtraction, and the fluorescence of compound-treated cells was normalized to the fluorescence of DMSO-treated cells. IC50s were determined using Igor Pro software. All compounds are assayed in duplicate cell plates.

[2] = molecular target: T2, BaF3-FLT3-ITD-D835V (Homo sapiens, UniProt P36888, INS600HVDFREYEYD/D835V, cells depend on it); assay: CTB viability assay CS0048, BaF3-FLT3-ITD-D835V; assay type: cell-based, murine; conditions: BaF3-FLT3-ITD-D835V cells, CellTiter Blue viability, 72 hours; read-out: Cell Assay: CS0048: BaF3-FLT3-ITD-D835V CTB:IC50
T2 sequence (P36888 with tags, fused parts or gaps INS600HVDFREYEYD/D835V): T1 sequence (P36888 with tags, fused parts or gaps INS600HVDFREYEYD/F691L) with L701F, D845V
Text: as §1, §2

| SMILES | GI50 [1] | GI50 [2] |
| --- | --- | --- |
| CCc1nn(C2CCS(=O)(=O)C2)cc1Nc1ncc(-c2ccc(CC(=O)Nc3cc(C4(C(F)(F)F)CC4)on3)c(F)c2)cn1 (centres unmarked) [P-012, 2-[4-[2-[[1-(1,1-dioxothiolan-3-yl)-3-ethylpyrazol-4-yl]amino]pyrimidin-5-yl]-2-fluorophenyl]-N-[5-[1-(trifluoromethyl)cyclopropyl]isoxazol-3-yl]acetamide] | 0.01 to 0.05 µM | 0.01 to 0.05 µM |
| Cn1cc(Nc2ncc(-c3ccc(CC(=O)Nc4cc(C5(C(F)(F)F)CC5)on4)c(F)c3)c(C(F)(F)F)n2)cn1 [P-027, 2-[2-fluoro-4-[2-[(1-methylpyrazol-4-yl)amino]-4-(trifluoromethyl)pyrimidin-5-yl]phenyl]-N-[5-[1-(trifluoromethyl)cyclopropyl]isoxazol-3-yl]acetamide] | 0.05 to 0.1 µM | 0.01 to 0.05 µM |
| Cc1c(Nc2ncc(-c3ccc(CC(=O)Nc4cc(C5(C(F)(F)F)CC5)on4)c(F)c3)cn2)ncn1C [P-075, 2-[4-[2-[(l,5-dimethylimidazol-4-yl)amino]pyrimidin-5-yl]-2-fluorophenyl]-N-[5-[1-(trifluoromethyl)cyclopropyl]isoxazol-3-yl]acetamide] | 0.01 to 0.05 µM | 0.01 to 0.05 µM |
| O=C(Cc1ccc(-c2cnc(Nc3cnccn3)nc2)cc1F)Nc1cc(C2(C(F)(F)F)CC2)on1 [P-086, 2-[2-fluoro-4-[2-(pyrazin-2-ylamino)pyrimidin-5-yl]phenyl]-N-[5-[1-(trifluoromethyl)cyclopropyl]isoxazol-3-yl]acetamide] | 0.01 to 0.05 µM | 0.01 to 0.05 µM |
| COc1cnccc1Nc1ncc(-c2ccc(CC(=O)Nc3cc(C4(C(F)(F)F)CC4)on3)c(F)c2)cn1 [P-105, 2-[2-fluoro-4-[2-[(3-methoxy-4-pyridyl)amino]pyrimidin-5-yl]phenyl]-N-[5-[1-(trifluoromethyl)cyclopropyl]isoxazol-3-yl]acetamide] | 0.01 to 0.05 µM | 0.05 to 0.1 µM |
| COc1nc(Nc2cn(C)nc2C)ncc1-c1ccc(CC(=O)Nc2cc(C3(C(F)(F)F)CC3)on2)c(F)c1 [P-117, 2-[4-[2-[(l,3-dimethylpyrazol-4-yl)amino]-4-methoxy-pyrimidin-5-yl]-2-fluorophenyl]-N-[5-[1-(trifluoromethyl)cyclopropyl]isoxazol-3-yl]acetamide] | 0.01 to 0.05 µM | – |
| Cc1nc(Nc2cn(C)cn2)ncc1-c1ccc(CC(=O)Nc2cc(C3(C(F)(F)F)CC3)on2)c(F)c1 [P-119, 2-[2-fluoro-4-[4-methyl-2-[(1-methylimidazol-4-yl)amino]pyrimidin-5-yl]phenyl]-N-[5-[1-(trifluoromethyl)cyclopropyl]isoxazol-3-yl]acetamide] | 0.01 to 0.05 µM | 0.05 to 0.1 µM |
| C=CC(=O)Nc1nn(C)cc1Nc1ncc(-c2ccc(CC(=O)Nc3cc(C4(C(F)(F)F)CC4)on3)c(F)c2)cn1 [P-125, N-[4-[[5-[3-fluoro-4-[2-oxo-2-[[5-[1-(trifluoromethyl)cyclopropyl]isoxazol-3-yl]amino]ethyl]phenyl]pyrimidin-2-yl]amino]-1-methyl-pyrazol-3-yl] prop-2-enamide] | 0.01 to 0.05 µM | 0.05 to 0.1 µM |
| COc1nn(C2CC2)cc1Nc1ncc(-c2ccc(CC(=O)Nc3cc(C4(C(F)(F)F)CC4)on3)c(F)c2)c(C)n1 [P-126, 2-[4-[2-[(1-cyclopropyl-3-methoxypyrazol-4-yl)amino]-4-methyl-pyrimidin-5-yl]-2-fluorophenyl]-N-[5-[1-(trifluoromethyl)cyclopropyl]isoxazol-3-yl]acetamide] | 0.01 to 0.05 µM | 0.01 to 0.05 µM |
| Cc1nc(Nc2cnn(C3CC3)c2C)ncc1-c1ccc(CC(=O)Nc2cc(C3(C(F)(F)F)CC3)on2)c(F)c1 [P-129, 2-[4-[2-[(1-cyclopropyl-5-methylpyrazol-4-yl)amino]-4-methyl-pyrimidin-5-yl]-2-fluorophenyl]-N-[5-[1-(trifluoromethyl)cyclopropyl]isoxazol-3-yl]acetamide] | 0.01 to 0.05 µM | 0.01 to 0.05 µM |
| Cc1nn(C2CC2)cc1Nc1ncc(-c2ccc(CC(=O)Nc3cc(C4(C(F)(F)F)CC4)on3)c(F)c2)c(C)n1 [P-130, 2-[4-[2-[(1-cyclopropyl-3-methylpyrazol-4-yl)amino]-4-methyl-pyrimidin-5-yl]-2-fluorophenyl]-N-[5-[1-(trifluoromethyl)cyclopropyl]isoxazol-3-yl]acetamide] | 0.01 to 0.05 µM | 0.01 to 0.05 µM |
| Cn1cncc1Nc1ncc(-c2ccc(CC(=O)Nc3cc(C4(C(F)(F)F)CC4)on3)c(F)c2)cn1 [P-132, 2-[2-fluoro-4-[2-[(3-methylimidazol-4-yl)amino]pyrimidin-5-yl]phenyl]-N-[5-[1-(trifluoromethyl)cyclopropyl]isoxazol-3-yl]acetamide] | 0.01 to 0.05 µM | 0.01 to 0.05 µM |
| COc1nn(C(F)F)cc1Nc1ncc(-c2ccc(CC(=O)Nc3cc(C4(C(F)(F)F)CC4)on3)c(F)c2)c(C)n1 [P-144, 2-[4-[2-[[1-(difluoromethyl)-3-methoxypyrazol-4-yl]amino]-4-methyl-pyrimidin-5-yl]-2-fluorophenyl]-N-[5-[1-(trifluoromethyl)cyclopropyl]isoxazol-3-yl]acetamide] | 0.01 to 0.05 µM | 0.05 to 0.1 µM |
| CCn1cncc1Nc1ncc(-c2ccc(CC(=O)Nc3cc(C4(C(F)(F)F)CC4)on3)c(F)c2)cn1 [P-147, 2-[4-[2-[(3-ethylimidazol-4-yl)amino]pyrimidin-5-yl]-2-fluoro-phenyl]-N-[5-[1-(trifluoromethyl)cyclopropyl]isoxazol-3-yl]acetamide] | 0.01 to 0.05 µM | 0.05 to 0.1 µM |
| Cc1nn(C)cc1Nc1ncc(-c2ccc(CC(=O)Nc3cc(C4(C(F)(F)F)CC4)on3)c(F)c2)c(N)n1 [P-149, 2-[4-[4-amino-2-[(1,3-dimethylpyrazol-4-yl)amino]pyrimidin-5-yl]-2-fluorophenyl]-N-[5-[1-(trifluoromethyl)cyclopropyl]isoxazol-3-yl]acetamide] | 0.01 to 0.05 µM | 0.01 to 0.05 µM |
